Assays:
[1] = Stability of multibiotic agents in Simulated Intestinal Fluid (SIF); type: in vitro ADME; settings: simulated intestinal fluid pH 6.7 with pancreatin, 37° C., 1 μM
Protocol: Assay 2. Stability of multibiotic agents in Simulated Intestinal Fluid (SIF). This assay can be used to assess the stability of a multibiotic agent in a small intestine. Phosphate buffer was prepared by dissolving 0.42 g of sodium hydroxide pellets and 3.95 g of monobasic sodium phosphate monohydrate and 6.19 g of sodium chloride in ultrapure water (MilliQ®, Millipore Sigma, Darmstadt, Germany). The pH was adjusted to 6.7 using aq. HCl and aq. NaOH, as necessary, and the solution was diluted with ultrapure water to produce 1 L of the pH 6.7 buffer. 112 mg FaSSIF powder (Biorelevant™, London, UK) was dissolved in 50 mL of the pH 6.7 buffer. 2 to 3 mL of the resulting solution were then added to 500 mg pancreatin (Millipore Sigma, Darmstadt, Germany). The resulting mixture was agitated by finger tapping the vessel containing the mixture until milky suspension formed. At this time, the remainder of the 50 mL FaSSiF/pH 6.7 buffer solution was added. The resulting suspension was flipped upside down 10 times to produce SIF, which was used fresh. Test compounds are dissolved in DMSO stock to 1 mM. An aliquot of the DMSO stock solution is removed and diluted in the SIF media in 15 mL falcon tubes to produce a mixture with a tested compound concentration of 1 μM. A 1 mL aliquot is immediately removed and diluted once with 1 volume of acetonitrile for T0 timepoint. The mixture is sealed and agitated at 37° C. in an incubator. Aliquots (1 mL) are removed at regular intervals and immediately quenched by the addition of 1 volume of acetonitrile. The resulting samples are analyzed by LC/MS to determine degradation rates.

[2] = Stability of multibiotic agents in Simulated Gastric Fluid (SGF); type: in vitro ADME; settings: simulated gastric fluid pH 1.6 with pepsin, 37° C., 1 μM
Protocol: Assay 3. Stability of multibiotic agents in Simulated Gastric Fluid (SGF). This assay can be used to assess the stability of a multibiotic agent in a stomach.
Medium was prepared by dissolving 2 g of sodium chloride in 0.6 L in ultrapure water (MilliQ®, Millipore Sigma, Darmstadt, Germany). The pH was adjusted to 1.6 with 1 N hydrochloric acid, and the volume was then adjusted to 1 L with purified water.
60 mg FaSSIF powder (Biorelevant™, London, UK) were dissolved in 500 mL buffer (above). Pepsin was added (0.1 mg/mL) (Millipore Sigma, Darmstadt, Germany), and the solution was stirred. The resulting SGF media were used fresh for each experiment.
Test compounds were dissolved in DMSO stock to 1 mM. An aliquot of the DMSO stock solution was removed and diluted in the SGF Media in 15 mL falcon tubes to generate a total compound concentration of 1 μM. A 1 mL aliquot was immediately removed and diluted once with 1 volume of acetonitrile for T0 timepoint. The mixture was sealed and mixed at 37° C. in an incubator. Aliquots (1 mL) were removed at regular intervals and immediately quenched by the addition of 1 volume of acetonitrile. The resulting samples were analyzed by LC/MS to determine degradation rates in SGF.

| Compound | Assay 3 (SIF) (% @ Remaining 4 hours) [1] | Assay 2 (SGF) (% Remaining @ 4 hours) [2] |
| --- | --- | --- |
| CC(C)(COC(=O)CCc1c[nH]c2ccccc12)[C@@H](OC(=O)CCc1c[nH]c2ccccc12)C(=O)NCCC(N)=O [Example 98, [(3R)-4-[(3-amino-3-oxo-propyl)amino]-3-[3-(1H-indol-3-yl)propanoyloxy]-2,2-dimethyl-4-oxo-butyl] 3-(1H-indol-3-yl)propanoate] | A (<25% of the tested compound remaining) | C (>75% of the tested compound remaining) |
| CC(=O)OCc1cnc(C)c(OC(C)=O)c1COC(C)=O [Example 99, [5-acetoxy-4-(acetoxymethyl)-6-methyl-3-pyridyl] methyl acetate] | C (>75% of the tested compound remaining) | C (>75% of the tested compound remaining) |
| CCCC(=O)OCc1cnc(C)c(OC(=O)CCC)c1COC(=O)CCC [Example 100, [5-butanoyloxy-4-(butanoyloxymethyl)-6-methyl-3-pyridyl]methyl butanoate] | C (>75% of the tested compound remaining) | C (>75% of the tested compound remaining) |
| CCCC(=O)O[C@H](C)CC(=O)OCc1cnc(C)c(OC(=O)C[C@@H](C)OC(=O)CCC)c1COC(=O)C[C@@H](C)OC(=O)CCC [Example 101, [5-[(3R)-3-butanoyloxybutanoyl]oxy-4-[[(3R)-3-butanoyloxybutanoyl]oxymethyl]-6-methyl-3-pyridyl]methyl (3R)-3-butanoyloxybutanoate] | C (>75% of the tested compound remaining) | C (>75% of the tested compound remaining) |
| Cc1ncc(COC(=O)Cc2c[nH]c3ccccc23)c(COC(=O)Cc2c[nH]c3ccccc23)c1OC(=O)Cc1c[nH]c2ccccc12 [Example 102, [5-[2-(1H-indol-3-yl)acetyl]oxy-4-[[2-(1H-indol-3-yl)acetyl]oxymethyl]-6-methyl-3-pyridyl]methyl 2-(1H-indol-3-yl)acetate] | B (25-75% of the tested compound remaining) | C (>75% of the tested compound remaining) |
| Cc1ncc(COC(=O)CCc2c[nH]c3ccccc23)c(COC(=O)CCc2c[nH]c3ccccc23)c1OC(=O)CCc1c[nH]c2ccccc12 [Example 103, [5-[3-(1H-indol-3-yl)propanoyloxy]-4-[3-(1H-indol-3-yl)propanoyloxymethyl]-6-methyl-3-pyridyl]methyl3-(1H-indol-3-yl)propanoate] | A (<25% of the tested compound remaining) | C (>75% of the tested compound remaining) |
| O=C(Cc1c[nH]c2ccccc12)OC[C@@H](O)[C@H](COC(=O)Cc1c[nH]c2ccccc12)OC(=O)Cc1c[nH]c2ccccc12 [Example 104, [(2R,3S)-2-hydroxy-3,4-bis[[2-(1H-indol-3-yl)acetyl]oxy]butyl] 2-(1H-indol-3-yl)acetate] | B (25-75% of the tested compound remaining) | C (>75% of the tested compound remaining) |
| O=C(Cc1c[nH]c2ccccc12)OC[C@H](OC(=O)Cc1c[nH]c2ccccc12)[C@@H](COC(=O)Cc1c[nH]c2ccccc12)OC(=O)Cc1c[nH]c2ccccc12 [Example 105, [(2R,3S)-2,3,4-tris[[2-(1H-indol-3-yl)acetyl]oxy]butyl] 2-(1H-indol-3-yl)acetate] | B (25-75% of the tested compound remaining) | C (>75% of the tested compound remaining) |
| O=C(Cc1c[nH]c2ccccc12)OC[C@@H](OC(=O)Cc1c[nH]c2ccccc12)[C@H]1OC[C@H](OC(=O)Cc2c[nH]c3ccccc23)[C@H]1OC(=O)Cc1c[nH]c2ccccc12 [Example 106, [(2R)-2-[(2R,3R,4S)-3,4-bis[[2-(1H-indol-3-yl)acetyl]oxy]tetrahydrofuran-2-yl]-2-[2-(1H-indol-3-yl)acetyl]oxy-ethyl] 2-(1H-indol-3-yl)acetate] | C (>75% of the tested compound remaining) | C (>75% of the tested compound remaining) |
| O=C(CCc1c[nH]c2ccccc12)OC[C@@H](OC(=O)CCc1c[nH]c2ccccc12)[C@H]1OC[C@H](OC(=O)CCc2c[nH]c3ccccc23)[C@H]1OC(=O)CCc1c[nH]c2ccccc12 [Example 107, [(2R)-2-[(2R,3R,4S)-3,4-bis[3-(1H-indol-3-yl)propanoyloxy]tetrahydrofuran-2-yl]-2-[3-(1H-indol-3-yl)propanoyloxy]ethyl] 3-(1H-indol-3-yl)propanoate] | B (25-75% of the tested compound remaining) | C (>75% of the tested compound remaining) |
| CCCC(=O)O[C@H]1CO[C@H]2[C@@H]1OC[C@H]2OC(=O)CCC [Example 108, [(3S,3aR,6R,6aR)-6-butanoyloxy-2,3,3a,5,6,6a-hexahydrofuro[3,2-b]furan-3-yl] butanoate] | B (25-75% of the tested compound remaining) | C (>75% of the tested compound remaining) |
| O=C(CCc1c[nH]c2ccccc12)O[C@H]1CO[C@H]2[C@@H]1OC[C@H]2OC(=O)CCc1c[nH]c2ccccc12 [Example 110, [(3S,3aR,6R,6aR)-6-[3-(1H-indol-3-yl)propanoyloxy]-2,3,3a,5,6,6a-hexahydrofuro[3,2-b]furan-3-yl] 3-(1H-indol-3-yl) propanoate] | A (<25% of the tested compound remaining) | C (>75% of the tested compound remaining) |
| C[C@@H](O)CC(=O)OCCCNC(=O)[C@H](OC(=O)C[C@@H](C)O)C(C)(C)COC(=O)C[C@@H](C)O [Example 111, 3-[[(2R)-2,4-bis[[(3R)-3-hydroxybutanoyl]oxy]-3,3-dimethyl-butanoyl]amino]propyl (3R)-3-hydroxybutanoate] | C (>75% of the tested compound remaining) | C (>75% of the tested compound remaining) |
| C[C@@H](O)CC(=O)OCC(C)(C)[C@@H](OC(=O)C[C@@H](C)O)C(=O)NCCC(N)=O [Example 114, [(3R)-4-[(3-amino-3-oxo-propyl)amino]-3-[(3R)-3-hydroxybutanoyl]oxy-2,2-dimethyl-4-oxo-butyl] (3R)-3-hydroxybutanoate] | C (>75% of the tested compound remaining) | C (>75% of the tested compound remaining) |
| CC(=O)CC(=O)O[C@H]1CO[C@H]2[C@@H]1OC[C@H]2OC(=O)CC(C)=O [Example 115, [(3S,3aR,6R,6aR)-6-(3-oxobutanoyloxy)-2,3,3a,5,6,6a-hexahydrofuro[3,2-b]furan-3-yl] 3-oxobutanoate] | B (25-75% of the tested compound remaining) | C (>75% of the tested compound remaining) |
| CCCC(=O)Nc1ccc(O)c(C(=O)O)c1 [Example 116, 5-(butanoylamino)-2-hydroxy-benzoic acid] | C (>75% of the tested compound remaining) | C (>75% of the tested compound remaining) |
| CCCC(=O)O[C@@H]1[C@H](OC(=O)CCC)COC(Oc2ccc(N)cc2C(=O)O)[C@@H]1OC(=O)CCC (stereo partly drawn) [Example 117, 5-amino-2-[(3R,4R,5R)-3,4,5-tri(butanoyloxy)tetrahydropyran-2-yl]oxy-benzoic acid] | C (>75% of the tested compound remaining) | C (>75% of the tested compound remaining) |
| CC(=O)Oc1ccc(/C=C/c2cc(OC(C)=O)cc(OC(C)=O)c2)cc1 [Example 118, [(E)-2-(3,5-diacetoxyphenyl)vinyl]phenyl] acetate] | C (>75% of the tested compound remaining) | C (>75% of the tested compound remaining) |
| CCCC(=O)O[C@H](C)CC(=O)Oc1ccc2c(c1)oc(=O)c1cc(OC(=O)C[C@@H](C)OC(=O)CCC)c(OC(=O)C[C@@H](C)OC(=O)CCC)cc12 [Example 122, [8,9-bis[[(3R)-3-butanoyloxybutanoyl]oxy]-6-oxo-benzo[c]chromen-3-yl] (3R)-3-butanoyloxybutanoate] | A (<25% of the tested compound remaining) | C (>75% of the tested compound remaining) |
